Assay results taken from ChEMBL document CHEMBL1201862, “PubChem BioAssay data set” (2004).
Active and inactive are the calls of the source.

Assays:
[1] = MC4R antagonists, dose response, counter-screen for LGR2 antagonist project, cell-based, plate reader, cherry pick (AID 743444); type: functional;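 also: transfected HEK 293 cells stimulated with alpha-MSH peptide; potency of inhibitors of the alpha-MSH evoked signal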
[2] = molecular target: Peroxisome proliferator-activated receptor gamma/Nuclear receptor coactivator 3 (Homo sapiens, UniProt P37231); experiment: TR-FRET dose response biochemical High Throughput Screening assay for agonists of the steroid receptor coactivator 3 (SRC-3) recruitment by the peroxisome proliferator-activated receptor gamma (PPAR gamma): non-selective agonists. [Related pubchem assays: 1301 (Confirmation screen.), 1048 (Primary screen.)]; type: functional
Sequence of Peroxisome proliferator-activated receptor gamma/Nuclear receptor coactivator 3 (P37231 whole entry, the tested form may be a part): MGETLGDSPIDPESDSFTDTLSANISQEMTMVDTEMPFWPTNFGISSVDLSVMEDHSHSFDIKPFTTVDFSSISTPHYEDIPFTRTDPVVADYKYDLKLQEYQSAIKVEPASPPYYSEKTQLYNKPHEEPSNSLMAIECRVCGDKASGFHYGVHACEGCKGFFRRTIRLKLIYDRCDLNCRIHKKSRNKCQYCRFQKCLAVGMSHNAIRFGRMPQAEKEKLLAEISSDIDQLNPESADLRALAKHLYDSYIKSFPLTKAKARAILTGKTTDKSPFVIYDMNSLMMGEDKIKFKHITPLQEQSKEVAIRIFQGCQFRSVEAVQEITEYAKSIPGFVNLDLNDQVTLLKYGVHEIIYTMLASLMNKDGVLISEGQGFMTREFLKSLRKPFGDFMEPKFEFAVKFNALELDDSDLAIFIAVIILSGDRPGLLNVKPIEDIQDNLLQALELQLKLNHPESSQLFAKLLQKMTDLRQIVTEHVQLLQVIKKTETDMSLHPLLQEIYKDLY
Sequence of Peroxisome proliferator-activated receptor gamma/Nuclear receptor coactivator 3 (Q9Y6Q9 whole entry, further chain, the tested form may be a part): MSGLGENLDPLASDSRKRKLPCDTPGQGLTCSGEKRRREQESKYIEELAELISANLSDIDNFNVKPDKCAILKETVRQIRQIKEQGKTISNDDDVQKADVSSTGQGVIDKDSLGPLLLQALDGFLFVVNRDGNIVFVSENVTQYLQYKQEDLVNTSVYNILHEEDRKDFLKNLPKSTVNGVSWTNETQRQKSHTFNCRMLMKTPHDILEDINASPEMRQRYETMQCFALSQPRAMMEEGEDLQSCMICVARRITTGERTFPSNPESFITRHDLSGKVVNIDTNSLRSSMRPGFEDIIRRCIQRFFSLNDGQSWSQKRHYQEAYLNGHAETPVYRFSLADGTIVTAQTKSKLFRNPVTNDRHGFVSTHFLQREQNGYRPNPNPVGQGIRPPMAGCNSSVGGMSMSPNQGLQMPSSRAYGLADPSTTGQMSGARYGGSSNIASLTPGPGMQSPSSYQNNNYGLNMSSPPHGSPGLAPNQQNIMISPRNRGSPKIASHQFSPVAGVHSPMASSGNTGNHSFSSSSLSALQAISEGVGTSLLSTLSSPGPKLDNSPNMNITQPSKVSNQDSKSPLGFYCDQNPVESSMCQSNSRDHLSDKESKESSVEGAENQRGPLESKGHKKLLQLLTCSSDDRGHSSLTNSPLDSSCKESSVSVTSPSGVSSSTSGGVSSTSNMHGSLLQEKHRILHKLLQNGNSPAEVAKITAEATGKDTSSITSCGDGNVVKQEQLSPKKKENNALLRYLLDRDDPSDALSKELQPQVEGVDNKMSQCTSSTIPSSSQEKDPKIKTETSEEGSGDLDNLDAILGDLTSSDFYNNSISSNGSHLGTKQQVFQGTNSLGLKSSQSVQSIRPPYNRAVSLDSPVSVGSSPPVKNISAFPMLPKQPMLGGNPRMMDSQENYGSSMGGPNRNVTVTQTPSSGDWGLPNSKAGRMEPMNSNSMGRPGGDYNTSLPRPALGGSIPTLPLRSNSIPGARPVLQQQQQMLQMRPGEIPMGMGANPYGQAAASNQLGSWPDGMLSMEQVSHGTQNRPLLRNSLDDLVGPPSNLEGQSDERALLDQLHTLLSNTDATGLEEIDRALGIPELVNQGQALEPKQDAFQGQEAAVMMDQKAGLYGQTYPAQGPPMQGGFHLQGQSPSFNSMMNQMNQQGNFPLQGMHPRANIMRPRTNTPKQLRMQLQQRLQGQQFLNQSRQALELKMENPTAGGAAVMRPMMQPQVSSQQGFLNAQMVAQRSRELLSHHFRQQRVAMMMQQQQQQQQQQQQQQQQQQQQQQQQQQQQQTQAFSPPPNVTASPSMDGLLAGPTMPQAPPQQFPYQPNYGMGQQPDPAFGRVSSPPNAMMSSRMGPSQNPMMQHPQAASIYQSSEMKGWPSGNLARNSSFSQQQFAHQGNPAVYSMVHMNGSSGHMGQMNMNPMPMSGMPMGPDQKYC

[3] = luciferase reporter signal reduction – luminescence, H4-C neuroglioblastoma cells, dose response (AID 2458); type: functional, cell-based;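 also: H4 neuroglioblastoma cells stably carrying a luciferase reporter gene fusion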
[4] = molecular target: Peroxisome proliferator-activated receptor gamma/Nuclear receptor coactivator 2 (Homo sapiens, UniProt P37231); experiment: (§1) TR-FRET dose response biochemical High Throughput Screening assay for agonists of the steroid receptor coactivator 2 (SRC-2) recruitment by the peroxisome proliferator-activated receptor gamma (PPAR gamma): non-selective agonists. [Related pubchem assays: 1297, 1032 ]; type: functional
[5] = LGR2 antagonists, dose response, cell-based, HEK293, CRE-luciferase reporter, cherry pick, set 2 (AID 743343); type: functional;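 also: transfected cells were stimulated with diluted bursicon conditioned medium after compound addition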
[6] = Luminescence Cell-Based Dose Response HTS to Identify Inhibitors of 5'UTR Stem-Loop Driven Prion Protein mRNA Translation in H4 Neuroglioblastoma Cells. [Related pubchem assays: 1827 (Project Summary), 1813 (Primary HTS)]; type: functional
[7] = inhibitors of SNCA 5'UTR-driven translation, confirmation, luminescence, H4 neuroglioblastoma cells, dose confirmation (AID 2454); type: functional, cell-based;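 also: H4 neuroglioblastoma cells carrying an alpha-synuclein 5'UTR luciferase reporter; potency for inhibition of the luciferase signal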
cells = type: functional, cell-based
[8] = A549 cell cytotoxicity, dose response, cytotoxicity control, plate reader, cherry-pick, antagonist series (AID 743412); type: functional, cell-based
[9] = inhibitors of firefly luciferase expression or activity, dose response, H4 neuroglioma cells, luminescence (AID 1990); type: functional, cell-based
[10] = molecular target: Peroxisome proliferator-activated receptor gamma/Nuclear receptor coactivator 1 (Homo sapiens, UniProt P37231); experiment: as §1, with “1 (SRC-1)” for “2 (SRC-2)”, “assays (depositor defined):AID1300, AID1808, AID504735, AID631]” for “assays: 1297, 1032 ]”; type: protein assay
[11] = molecular target: T1, Eukaryotic translation initiation factor 2-alpha kinase 3 (Homo sapiens, UniProt Q9NZJ5); experiment: Dose response cell-based high-throughput screening assay to measure PERK inhibition. [Related pubchem assays: 1416 ]; type: functional
T1 sequence (Q9NZJ5 whole entry): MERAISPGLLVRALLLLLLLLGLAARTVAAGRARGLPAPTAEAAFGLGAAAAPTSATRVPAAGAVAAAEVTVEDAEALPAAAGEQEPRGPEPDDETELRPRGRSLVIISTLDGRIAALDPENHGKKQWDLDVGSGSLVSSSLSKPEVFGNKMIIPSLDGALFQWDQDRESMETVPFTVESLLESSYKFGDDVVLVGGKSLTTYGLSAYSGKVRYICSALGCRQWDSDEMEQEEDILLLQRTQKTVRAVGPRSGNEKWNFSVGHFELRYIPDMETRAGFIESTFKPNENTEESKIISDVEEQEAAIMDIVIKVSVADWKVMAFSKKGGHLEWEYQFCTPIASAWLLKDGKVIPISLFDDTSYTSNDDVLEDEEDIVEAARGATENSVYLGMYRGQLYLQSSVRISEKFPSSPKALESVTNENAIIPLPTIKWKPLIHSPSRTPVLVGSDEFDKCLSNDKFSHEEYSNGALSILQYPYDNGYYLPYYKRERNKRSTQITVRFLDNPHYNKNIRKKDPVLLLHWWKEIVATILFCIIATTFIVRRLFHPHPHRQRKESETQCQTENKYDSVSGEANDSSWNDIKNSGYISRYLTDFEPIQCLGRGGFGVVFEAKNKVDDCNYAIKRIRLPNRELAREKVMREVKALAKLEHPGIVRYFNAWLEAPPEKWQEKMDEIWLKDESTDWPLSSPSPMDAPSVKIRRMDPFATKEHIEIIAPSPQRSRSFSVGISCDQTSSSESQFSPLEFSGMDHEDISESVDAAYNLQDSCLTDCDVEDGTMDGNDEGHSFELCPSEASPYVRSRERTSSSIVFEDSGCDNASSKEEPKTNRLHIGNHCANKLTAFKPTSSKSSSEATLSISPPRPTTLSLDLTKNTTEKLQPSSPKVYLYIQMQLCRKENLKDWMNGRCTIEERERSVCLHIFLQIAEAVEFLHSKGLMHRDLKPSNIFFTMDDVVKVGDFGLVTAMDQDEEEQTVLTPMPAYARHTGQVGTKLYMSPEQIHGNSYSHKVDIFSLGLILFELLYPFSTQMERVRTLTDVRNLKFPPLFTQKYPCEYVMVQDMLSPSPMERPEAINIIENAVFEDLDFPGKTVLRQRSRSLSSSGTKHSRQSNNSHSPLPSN

[12] = molecular target: T1, Eukaryotic translation initiation factor 2-alpha kinase 3; experiment: Counterscreen assay for PERK inhibitors: Dose response cell-based high throughput screening assay to measure inhibition of PERK at 6 hours. [Related pubchem assays: 1522, 1416 ]; type: functional
[13] = A High Throughput Confirmatory Assay used to Identify Novel Compounds that Inhibit Mycobacterium Tuberculosis in the absence of Glycerol.; type: functional
[14] = molecular target: Acyl-homoserine lactone acylase PvdQ (Pseudomonas aeruginosa (strain LESB58), UniProt Q9I194); experiment: P. aeruginosa PvdQ acylase inhibitors, dose response, biochemical, fluorescence, plate reader and imaging, cherry-picks (AID 493231)
Sequence of Acyl-homoserine lactone acylase PvdQ (Q9I194 24-193 limits assumed): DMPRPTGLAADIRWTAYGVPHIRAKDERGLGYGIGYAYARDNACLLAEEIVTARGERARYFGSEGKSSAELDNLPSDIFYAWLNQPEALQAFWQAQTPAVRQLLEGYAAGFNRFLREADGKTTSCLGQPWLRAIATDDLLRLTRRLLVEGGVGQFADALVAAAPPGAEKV
Sequence of Acyl-homoserine lactone acylase PvdQ (Q9I194 217-762 limits assumed): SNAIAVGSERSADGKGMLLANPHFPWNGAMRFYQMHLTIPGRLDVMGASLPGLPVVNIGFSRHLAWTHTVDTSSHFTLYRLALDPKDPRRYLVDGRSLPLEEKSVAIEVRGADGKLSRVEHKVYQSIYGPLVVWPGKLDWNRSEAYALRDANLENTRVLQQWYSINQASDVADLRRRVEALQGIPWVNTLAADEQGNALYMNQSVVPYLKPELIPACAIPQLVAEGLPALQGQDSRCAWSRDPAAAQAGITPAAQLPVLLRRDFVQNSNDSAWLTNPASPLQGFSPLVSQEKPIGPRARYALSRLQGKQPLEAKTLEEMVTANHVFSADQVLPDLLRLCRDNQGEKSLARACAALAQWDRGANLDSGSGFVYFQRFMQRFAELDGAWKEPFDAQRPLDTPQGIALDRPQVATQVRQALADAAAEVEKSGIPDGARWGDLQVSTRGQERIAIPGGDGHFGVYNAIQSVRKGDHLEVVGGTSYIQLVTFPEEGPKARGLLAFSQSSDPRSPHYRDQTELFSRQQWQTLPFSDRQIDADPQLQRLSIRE

[15] = cytotoxicity toward NIH3T3 fibroblasts, dose response, counter-screen, cell-based, ATP luminescence, mouse fibroblasts (AID 2010); type: functional;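 also: cells exposed to compound for about 90 hours before reading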
HeLa = experiment: HeLa cell cytotoxicity, dose response, cytotoxicity control, 24 h, cherry-picked samples (AID 504726); type: functional, cell-based; details: Homo sapiens;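 also: potency for cytotoxicity as loss of luminescence signal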
[16] = inhibitors of intracellular T. cruzi replication, confirmation, NIH3T3 host cells, beta-gal luminescence (AID 2044); type: functional, cell-based;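 also: intracellular parasites grown in NIH/3T3 mouse fibroblasts as host cells; luminescent beta-galactosidase reporter signal from transgenic T. cruzi replicating inside host cells; inhibitors lower the luminescence signal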
BJ [17] = experiment: cytotoxicity toward BJ-TERT-LT-ST fibroblasts, dose response, cell-based, RAS-independent, luminescence (AID 1935); type: functional; details: Homo sapiens;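 also: BJ fibroblasts immortalized with TERT plus LT and ST oncogenes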
BJ [18] = experiment: cytotoxicity toward Ras-transformed BJeLR fibroblasts, dose response, cell-based, alamar blue fluorescence, cherrypicked samples (AID 2631); type: functional; details: Homo sapiens;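 also: confirmatory dose-response assay in RAS-dependent BJ fibroblasts engineered with TERT, LT and ST, with cytotoxicity read by fluorescence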
[19] = inhibitors of SNCA 5'UTR-driven reporter translation, confirmation, H4 neuroglioma cells, luminescence (AID 1988); type: functional, cell-based
BJ [20] = experiment: cytotoxicity toward BJ-TERT fibroblasts, dose response, cell-based, RAS-independent, luminescence (AID 1933); type: functional; details: Homo sapiens
BJ [21] = experiment: cells; type: functional, cell-based; details: Homo sapiens
[22] = cytotoxicity toward DRD oncogenic fibroblasts, dose response, cell-based, non-viral oncogenic, luminescence (AID 1934); type: functional; details: Homo sapiens
Aspartyl aminopeptidase = Aspartyl aminopeptidase (Plasmodium falciparum 3D7, UniProt Q8I2J3); experiment: Counterscreen for inhibitors of M1 and M17 aminopeptidases: QFRET-based biochemical high throughput dose response assay for inhibitors of the Plasmodium falciparum M18 Aspartyl Aminopeptidase (PFM18AAP). [Related PubChem assays: 1619 (Screening assay (M17LAP inhibitors).), 1445 (Screening assay (M1AAP inhibitors).)]
Sequence of Aspartyl aminopeptidase (Q8I2J3 whole entry): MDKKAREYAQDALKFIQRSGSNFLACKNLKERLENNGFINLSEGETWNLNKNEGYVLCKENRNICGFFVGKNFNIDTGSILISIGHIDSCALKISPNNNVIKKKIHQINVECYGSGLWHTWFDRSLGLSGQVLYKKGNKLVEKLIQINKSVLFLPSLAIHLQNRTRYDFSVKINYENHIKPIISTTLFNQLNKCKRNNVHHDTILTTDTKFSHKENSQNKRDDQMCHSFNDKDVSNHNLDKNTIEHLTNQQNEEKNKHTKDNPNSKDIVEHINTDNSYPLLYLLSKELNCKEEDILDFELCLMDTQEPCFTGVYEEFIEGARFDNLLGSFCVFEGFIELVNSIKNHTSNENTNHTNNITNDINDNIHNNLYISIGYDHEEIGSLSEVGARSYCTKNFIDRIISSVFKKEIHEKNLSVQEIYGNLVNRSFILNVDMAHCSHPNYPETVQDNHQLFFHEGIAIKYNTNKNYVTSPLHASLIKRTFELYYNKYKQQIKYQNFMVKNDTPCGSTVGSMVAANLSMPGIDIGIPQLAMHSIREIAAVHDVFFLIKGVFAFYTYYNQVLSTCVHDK

Leucine aminopeptidase = molecular target: T2, Leucine aminopeptidase (Plasmodium falciparum 3D7, UniProt Q8IL11); experiment: P. falciparum M17LAP inhibitors, primary screen, biochemical, fluorogenic H-Leu-NHMec substrate, 1536-well (AID 1619); type: functional
T2 sequence (Q8IL11 whole entry): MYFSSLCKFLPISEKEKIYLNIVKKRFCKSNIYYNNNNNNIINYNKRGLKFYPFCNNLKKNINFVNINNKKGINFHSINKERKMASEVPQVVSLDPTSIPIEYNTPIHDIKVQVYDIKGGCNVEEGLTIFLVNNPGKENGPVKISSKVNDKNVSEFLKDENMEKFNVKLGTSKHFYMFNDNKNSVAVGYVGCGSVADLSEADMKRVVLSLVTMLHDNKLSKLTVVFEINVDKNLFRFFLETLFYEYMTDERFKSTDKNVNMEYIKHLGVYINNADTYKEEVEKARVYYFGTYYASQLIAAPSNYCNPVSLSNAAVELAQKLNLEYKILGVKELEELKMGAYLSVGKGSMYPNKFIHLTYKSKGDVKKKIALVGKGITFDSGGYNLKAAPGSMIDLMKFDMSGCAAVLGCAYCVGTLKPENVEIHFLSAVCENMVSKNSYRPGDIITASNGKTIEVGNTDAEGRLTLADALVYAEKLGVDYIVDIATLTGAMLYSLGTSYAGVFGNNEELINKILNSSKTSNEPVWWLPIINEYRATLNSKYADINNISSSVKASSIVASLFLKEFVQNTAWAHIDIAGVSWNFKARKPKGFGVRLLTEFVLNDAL

Procathepsin L = Procathepsin L (Homo sapiens, UniProt P07711); experiment: cathepsin L inhibitors, dose response, counter-screen for M1/M17 aminopeptidase inhibitor project, biochemical, QFRET, 1536-well (AID 2214)
Sequence of Procathepsin L (P07711 whole entry): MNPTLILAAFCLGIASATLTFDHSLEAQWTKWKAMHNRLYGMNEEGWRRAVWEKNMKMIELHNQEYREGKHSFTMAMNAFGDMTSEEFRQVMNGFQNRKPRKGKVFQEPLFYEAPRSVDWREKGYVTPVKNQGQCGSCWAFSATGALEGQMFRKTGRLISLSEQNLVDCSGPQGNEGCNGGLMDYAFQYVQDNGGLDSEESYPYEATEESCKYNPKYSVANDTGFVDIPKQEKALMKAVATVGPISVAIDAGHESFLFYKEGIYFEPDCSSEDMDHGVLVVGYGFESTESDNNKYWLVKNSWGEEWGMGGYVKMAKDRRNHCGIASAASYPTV

[23] = A Cell Based Secondary Assay To Explore Cytotoxicity of Compounds that Sensitize Mycobacterium Tuberculosis to Beta-Lactam Antibiotics.; type: functional
[24] = molecular target: Melanin-concentrating hormone receptor 1 (Homo sapiens, UniProt Q99705); experiment: Late-stage fluorescence-based counterscreen for antagonists of the G-protein coupled receptor 7 (GPR7): cell-based dose response assay to identify antagonists of the melanin-concentrating hormone receptor 1 (MCHR1). [Related pubchem assays (depositor defined):AID1861, AID1880, AID1952, AID2148, AID2251, AID2257, AID485339]; type: functional;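 also: stimulated with 30 nM MCH peptide agonist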
Sequence of Melanin-concentrating hormone receptor 1 (Q99705 whole entry): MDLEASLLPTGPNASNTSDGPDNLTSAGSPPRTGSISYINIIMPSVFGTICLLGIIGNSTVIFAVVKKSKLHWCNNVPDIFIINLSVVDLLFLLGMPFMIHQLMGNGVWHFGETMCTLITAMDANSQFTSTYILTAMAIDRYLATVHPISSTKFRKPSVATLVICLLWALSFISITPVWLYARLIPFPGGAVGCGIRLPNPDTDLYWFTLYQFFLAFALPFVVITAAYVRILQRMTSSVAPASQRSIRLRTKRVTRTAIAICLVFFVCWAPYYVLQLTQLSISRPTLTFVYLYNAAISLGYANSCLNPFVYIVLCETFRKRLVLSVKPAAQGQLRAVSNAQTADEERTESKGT

Aminopeptidase N = molecular target: T3, Aminopeptidase N (Plasmodium falciparum FcB1/Columbia, UniProt O96935); experiment: P. falciparum M1AAP inhibitors, biochemical, fluorogenic H-Leu-NHMec substrate, 1536-well (AID 1445); set-up: species or system Plasmodium falciparum 3D7, 3D7
T3 sequence (O96935 whole entry): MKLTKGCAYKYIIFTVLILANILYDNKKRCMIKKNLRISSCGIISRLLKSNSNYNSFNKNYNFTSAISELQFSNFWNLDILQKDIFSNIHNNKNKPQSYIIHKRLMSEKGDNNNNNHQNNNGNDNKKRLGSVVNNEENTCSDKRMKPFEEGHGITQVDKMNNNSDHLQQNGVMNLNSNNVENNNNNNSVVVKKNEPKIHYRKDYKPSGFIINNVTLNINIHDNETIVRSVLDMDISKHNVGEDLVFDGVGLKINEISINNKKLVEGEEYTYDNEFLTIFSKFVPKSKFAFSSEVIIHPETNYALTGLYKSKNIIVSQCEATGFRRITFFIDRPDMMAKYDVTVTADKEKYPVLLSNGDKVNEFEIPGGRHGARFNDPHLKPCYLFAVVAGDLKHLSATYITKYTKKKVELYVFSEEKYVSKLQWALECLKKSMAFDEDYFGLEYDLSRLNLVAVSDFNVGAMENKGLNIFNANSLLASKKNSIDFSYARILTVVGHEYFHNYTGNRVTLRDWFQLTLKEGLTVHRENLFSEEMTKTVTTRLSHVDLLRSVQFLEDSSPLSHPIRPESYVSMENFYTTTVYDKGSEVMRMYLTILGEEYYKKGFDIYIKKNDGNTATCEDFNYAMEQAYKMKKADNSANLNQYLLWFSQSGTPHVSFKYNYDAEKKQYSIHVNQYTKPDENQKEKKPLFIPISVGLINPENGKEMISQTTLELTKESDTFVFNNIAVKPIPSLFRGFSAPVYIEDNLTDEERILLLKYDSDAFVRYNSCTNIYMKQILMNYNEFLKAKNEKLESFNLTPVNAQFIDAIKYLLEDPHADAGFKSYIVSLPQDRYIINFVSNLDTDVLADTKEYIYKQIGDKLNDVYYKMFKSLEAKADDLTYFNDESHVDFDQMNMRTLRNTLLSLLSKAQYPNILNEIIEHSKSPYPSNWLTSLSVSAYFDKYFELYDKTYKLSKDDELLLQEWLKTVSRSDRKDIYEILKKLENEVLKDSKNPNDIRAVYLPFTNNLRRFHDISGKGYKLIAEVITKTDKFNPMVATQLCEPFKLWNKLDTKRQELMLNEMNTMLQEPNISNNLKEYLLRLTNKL

O=C(c1ccccc1)N1CCSc2sccc2C1=O
AC50 [1]: 3.77 µM (active)
EC50 [2]: > 79.4 µM (not active)
EC50 [3]: 0.896 µM (active)
EC50 [4]: 15.8 µM (not active)
AC50 [5]: 4 µM (active)
EC50 [6]: < 0.1 µM (active)
EC50 [7]: 1.08 µM (active)
EC50 (cells): 7.25 µM (active)
AC50 [8]: > 52 µM (inactive)
EC50 [9]: 7.87 µM (active)
EC50 [10]: 18.9 µM (inactive)

O=C1c2ccncc2C(=O)N1c1cccc(Cl)c1
EC50 [11]: > 55.7 µM (not active)
EC50 [12]: > 55.7 µM (not active)

Cc1nn(-c2ccccc2)c(Cl)c1C(=O)Nc1nnc(C2CCCCC2)s1
IC50 [13]: > 50 µM (active)

N#CCn1c(C2CCCCC2)nc2ccccc2c1=O
AC50 [14]: 13.1 µM (active)

Cc1ccc(-c2nnn(CC(=O)NC3CCN(Cc4ccccc4)CC3)n2)cc1
EC50 [15]: > 60 µM (not active)
AC50 (HeLa): 276 µM (active)
EC50 [16]: 0.141 µM (active)

O=C(N/N=C/c1cccs1)c1cc(-c2ccncc2)nc2ccccc12
EC50 (BJ [17]): 0.671 µM (active)
EC50 (BJ [18]): 0.24 µM (active)
EC50 [3]: > 12 µM (inconclusive)
EC50 [19]: < 0.1 µM (active)
EC50 [6]: 0.294 µM (active)
EC50 [7]: > 12 µM (inconclusive)
EC50 (BJ [20]): 0.602 µM (active)
EC50 (BJ [21]): 0.712 µM (active)
EC50 (cells): 2.19 µM (active)
EC50 [9]: 4.61 µM (active)
EC50 [22]: 0.463 µM (active)

O=C(CSc1nc2c(c(=O)[nH]1)CN(Cc1ccc(F)cc1)CC2)Nc1ccc(F)cc1
IC50 (Aspartyl aminopeptidase): > 73.5 µM (not active)
IC50 (Leucine aminopeptidase): 7.8 µM (active)
IC50 (Procathepsin L): > 59.6 µM (not active)

O=C1C=C2C=C[C@@H]3CC2(O1)[C@H]1CCCCN31
CC50 [23]: 39.4 µM (active)

COc1ccc(Oc2c(Cl)cnn(-c3ccc(C4CC4)cc3)c2=O)cc1
IC50 [24]: 6.8 µM (active)

CCOC(=O)c1cnc(-c2ccccc2)nc1N
AC50 [14]: 11.6 µM (active)

CCCS(=O)(=O)N1CCC(C(=O)NCc2ccc3c(c2)OCO3)CC1
IC50 (Aspartyl aminopeptidase): > 73.5 µM (not active)
IC50 (Procathepsin L): > 59.6 µM (not active)
IC50 (Aminopeptidase N): 13.1 µM (active)

O=C(NNC(=O)C1CCCN(S(=O)(=O)c2ccc3ccccc3c2)C1)C1CC1 (stereo unspecified)
EC50 [11]: 23.2 µM (not active)
EC50 [12]: > 55.7 µM (not active)

O=c1c2cc(Cl)ccc2[nH]c(=S)n1Cc1cccs1
CC50 [23]: > 40 µM (active)
